Measured values taken from paper PMC9395488, “First-in-human study of IM156, a novel potent biguanide oxidative phosphorylation (OXPHOS) inhibitor, in patients with advanced solid tumors” (Investigational New Drugs, 2022).

Test system: patients with advanced solid tumors
Test: First-in-human phase 1 dose-escalation study: safety, DLTs, adverse events
Type: in vivo
From the text: This multicenter first-in-human dose-escalation phase 1 study (clinicaltrials.gov identifier: NCT03272256) was designed to determine the MTD or RP2D and to evaluate the safety and tolerability of IM156. Secondary endpoints included PK characteristics, efficacy assessment (objective response rate [ORR], disease control rate [DCR], duration of response [DoR] and progression-free survival [PFS]). Furthermore, exploratory objectives included identification and profiling of IM156 metabolites, evaluations of exploratory PD markers of IM156, and evaluations of any potential relationship between putative biomarkers and safety/efficacy parameters of IM156. The study was conducted in accordance with Good Clinical Practice, the International Council for Harmonisation, and guidelines governing clinical study conduct and the ethical principles originating from the Declaration of Helsinki. The study was approved by each Institutional Review Board and patients provided written informed consent. Patients were enrolled at three sites in South Korea.
The initial dose and schedule of IM156 was chosen based on animal toxicology studies. […] IM156 was administered in the fasted state, with no food for at least 2 h before and 1 h after dosing.
Three DLT-evaluable patients were enrolled at each dose level. If there were no DLTs or other prohibitive adverse events (AEs), the Safety Committee was allowed to recommend escalation to the next highest dose level. If 1 DLT occurred in the first 3 DLT-evaluable patients, enrollment in that cohort was expanded to an additional 3 DLT-evaluable patients; if ≥ 2 DLTs were reported in a cohort, that dose was considered above the MTD.
Safety was assessed through vital signs, weight, laboratory assessments, physical examinations, electrocardiogram, and reporting of AEs as graded by the National Cancer Institute’s Common Terminology Criteria for Adverse Events v4.03 (NCI-CTCAE).
DLTs were defined as the following AEs if they were attributed as related to IM156: asymptomatic grade 4 neutropenia lasting for ≥ 5 days; febrile neutropenia, regardless of grade; grade 4 thrombocytopenia or grade 3 thrombocytopenia with bleeding; any grade ≥ 3 non-hematologic AE (except grade 3 hypertension and grade 3 nausea, vomiting or diarrhea for which proper measures for prevention and treatment were not implemented, and alopecia); blood lactate levels > 5 mmol; grade ≥ 2 AE prohibiting dosing of IM156 for ≥ 21 continuous days except for alterations in serum calcium or phosphorus levels. The safety analysis includes all patients who received at least one dose of study drug.
The safety population was defined as all patients who received at least one dose of IM156. The PK population was not defined in the protocol but included all patients with sufficient PK data to perform adequate PK modeling. The efficacy population included all patients who underwent at least one tumor imaging assessment while receiving IM156. Safety was assessed using descriptive statistics (e.g., DLTs, AEs, laboratory tests, physical examination, 12-lead ECG). The incidence and number of events were reported for the DLTs observed in Cycle 1 per dose group. […] Adverse events and TRAEs were standardized with the System Organ Class and the Preferred Term using the Medical Dictionary for Regulatory Activities v23.0. In addition, TEAEs, serious adverse events (SAEs), TEAE severity, and TEAEs leading to withdrawal were presented by dose group. Efficacy data were to be presented by Waterfall and Swim Lane plots. Time to event endpoints (e.g., DoR, PFS) were determined using Kaplan–Meier estimations with the median value for each endpoint summarized.

[1] = all dose level/grade cells not in own entries

NC(=Nc1ccc(OC(F)(F)F)cc1)N=C(N)N1CCCC1 [IM156]
TEAE Diarrhoea, grade 2 (Total, all dose levels): 3 | TEAE Dysesthesia, grade 1 (Total, all dose levels): 1 | TEAE Fatigue, grade 1 (Total, all dose levels): 2 | TEAE Fatigue, grade 2 (Total, all dose levels): 4 | TEAE Gamma-glutamyltransferase increased, grade 2 (Total, all dose levels): 1 | TEAE Gamma-glutamyltransferase increased, grade 3 (Total, all dose levels): 1 | TEAE Gastritis, grade 1 (Total, all dose levels): 1 | TEAE Gastrointestinal pain, grade 1 (Total, all dose levels): 1 | TEAE Gastrointestinal pain, grade 2 (Total, all dose levels): 1 | TEAE Headache, grade 1 (Total, all dose levels): 1 | TEAE Headache, grade 2 (Total, all dose levels): 1 | TEAE Hemoptysis, grade 2 (Total, all dose levels): 1 | TEAE Hyperkalaemia, grade 3 (Total, all dose levels): 1 | TEAE Hypoalbuminaemia, grade 2 (Total, all dose levels): 2 | TEAE Hypocalcemia, grade 2 (Total, all dose levels): 1 | TEAE Ileus, grade 2 (Total, all dose levels): 1 | TEAE Ileus, grade 3 (Total, all dose levels): 1 | TEAE Influenza like illness, grade 1 (Total, all dose levels): 1 | TEAE Large intestinal obstruction, grade 2 (Total, all dose levels): 1 | TEAE Lethargy, grade 2 (Total, all dose levels): 1 | TEAE Nausea, grade 1 (Total, all dose levels): 8 | TEAE Nausea, grade 2 (Total, all dose levels): 5 | TEAE Nausea, grade 3 (Total, all dose levels): 3 | TEAE Neutrophil count decreased, grade 4 (Total, all dose levels): 1 | TEAE Obstruction gastric, grade 3 (Total, all dose levels): 1 | TEAE Oedema peripheral, grade 2 (Total, all dose levels): 1 | TEAE Oropharyngeal pain, grade 1 (Total, all dose levels): 1 | TEAE Pain, grade 2 (Total, all dose levels): 1 | TEAE Peripheral sensory neuropathy, grade 1 (Total, all dose levels): 1 | TEAE Platelet count decreased, grade 1 (Total, all dose levels): 1 | TEAE Pleural effusion, grade 2 (Total, all dose levels): 1 | TEAE Proctalgia, grade 2 (Total, all dose levels): 1 | TEAE Pyrexia, grade 1 (Total, all dose levels): 5 | TEAE Pyrexia, grade 2 (Total, all dose levels): 1 | TEAE Toothache, grade 1 (Total, all dose levels): 1 | TEAE Vomiting, grade 1 (Total, all dose levels): 10 | TEAE Vomiting, grade 2 (Total, all dose levels): 1 | TEAE Abdominal discomfort, dose level/grade cells without event [1]: 0 | TEAE Abdominal distension, dose level/grade cells without event [1]: 0 | TEAE Abdominal pain upper, dose level/grade cells without event [1]: 0 | TEAE Abdominal pain, dose level/grade cells without event [1]: 0 | TEAE Akathisia, dose level/grade cells without event [1]: 0 | TEAE Alanine aminotransferase increased, dose level/grade cells without event [1]: 0 | TEAE Ascites, dose level/grade cells without event [1]: 0 | TEAE Aspartate aminotransferase increased, dose level/grade cells without event [1]: 0 | TEAE Asthenia, dose level/grade cells without event [1]: 0 | TEAE Blood alkaline phosphatase increased, dose level/grade cells without event [1]: 0 | TEAE Blood creatinine increased, dose level/grade cells without event [1]: 0 | TEAE Blood lactic acid increased, dose level/grade cells without event [1]: 0 | TEAE Chest pain, dose level/grade cells without event [1]: 0 | TEAE Constipation, dose level/grade cells without event [1]: 0 | TEAE Cough, dose level/grade cells without event [1]: 0 | TEAE Decreased appetite, dose level/grade cells without event [1]: 0 | TEAE Diarrhoea, dose level/grade cells without event [1]: 0 | TEAE Dysesthesia, dose level/grade cells without event [1]: 0 | TEAE Fatigue, dose level/grade cells without event [1]: 0 | TEAE Gamma-glutamyltransferase increased, dose level/grade cells without event [1]: 0 | TEAE Gastritis, dose level/grade cells without event [1]: 0 | TEAE Gastrointestinal pain, dose level/grade cells without event [1]: 0 | TEAE Headache, dose level/grade cells without event [1]: 0 | TEAE Hemoptysis, dose level/grade cells without event [1]: 0 | TEAE Hyperkalaemia, dose level/grade cells without event [1]: 0 | TEAE Hypoalbuminaemia, dose level/grade cells without event [1]: 0 | TEAE Hypocalcemia, dose level/grade cells without event [1]: 0 | TEAE Ileus, dose level/grade cells without event [1]: 0 | TEAE Influenza like illness, dose level/grade cells without event [1]: 0 | TEAE Large intestinal obstruction, dose level/grade cells without event [1]: 0 | TEAE Lethargy, dose level/grade cells without event [1]: 0 | TEAE Nausea, dose level/grade cells without event [1]: 0 | TEAE Neutrophil count decreased, dose level/grade cells without event [1]: 0 | TEAE Obstruction gastric, dose level/grade cells without event [1]: 0 | TEAE Oedema peripheral, dose level/grade cells without event [1]: 0 | TEAE Oropharyngeal pain, dose level/grade cells without event [1]: 0 | TEAE Pain, dose level/grade cells without event [1]: 0 | TEAE Peripheral sensory neuropathy, dose level/grade cells without event [1]: 0 | TEAE Platelet count decreased, dose level/grade cells without event [1]: 0 | TEAE Pleural effusion, dose level/grade cells without event [1]: 0 | TEAE Proctalgia, dose level/grade cells without event [1]: 0 | TEAE Pyrexia, dose level/grade cells without event [1]: 0 | TEAE Toothache, dose level/grade cells without event [1]: 0 | TEAE Vomiting, dose level/grade cells without event [1]: 0 | days of interruption due to a TEAE, range (all doses): 2 to 11 days | median number of days of interruption due to a TEAE (all doses): 3 days | number of SAEs reported (all doses): Nine | number of laboratory AEs (all doses): 28 | Grade 3 nausea (TRAE), percent of patients (all doses, N = 22): 14% | TRAE abdominal pain, percent of patients (all doses, N = 22): 9% | TRAE constipation, percent of patients (all doses, N = 22): 9% | TRAE diarrhea, percent of patients (all doses, N = 22): 46% | TRAE emesis (vomiting), percent of patients (all doses, N = 22): 41% | TRAE fatigue, percent of patients (all doses, N = 22): 18% | TRAE nausea, percent of patients (all doses, N = 22): 68% | TRAEs grade 3 or higher, percent of patients (all doses, N = 22): 14% | patients in whom nausea and emesis required anti-emetic medications (all doses, N = 22): 14 patients | patients in whom nausea and emesis required anti-emetic medications, percent (all doses, N = 22): 64% | patients with SAEs (all doses, N = 22): 8 patients | patients with TRAEs (all doses, N = 22): 19 patients | patients with TRAEs, percent (all doses, N = 22): 86% | patients with a TEAE leading to dose interruption (all doses, N = 22): 7 patients | patients with a TEAE leading to dose interruption, percent (all doses, N = 22): 32% | patients with at least one TEAE (all doses, N = 22): 22 patients | patients with at least one TEAE, percent (all doses, N = 22): 100% | patients with gastrointestinal (GI) TRAEs (all doses, N = 22): 18 patients | patients with gastrointestinal (GI) TRAEs, percent (all doses, N = 22): 82% | total number of TEAEs reported (all doses, N = 22): 146 | TRAE blood lactate (lactic acid) increased, percent of patients (all doses, N = 22, Grade 1): 9% | Dose-limiting toxicity (dose level 1, 100 mg QOD oral, 3 patients): 0 | Dose-limiting toxicity (dose level 2, 200 mg QOD oral, 3 patients): 0 | Dose-limiting toxicity (dose level 3, 400 mg QOD oral, 3 patients): 0 | Dose-limiting toxicity (dose level 4, 800 mg QOD oral, 3 patients): 0 | Dose-limiting toxicity (dose level 5, 1,200 mg QOD oral, 3 patients): 0 | Dose-limiting toxicity (dose level 6, 800 mg QD oral, 3 patients): 0 | Dose-limiting toxicity (dose level 7, 1,200 mg QD oral, 4 patients): 0 | SAEs attributed to IM156 (grade 3 nausea at 1,200 mg QOD): 1 | laboratory AEs considered not related to IM156 (of 28 laboratory AEs): 26 | laboratory AEs considered not related to IM156, percent (of 28 laboratory AEs): 93% | recommended phase 2 dose (RP2D) (oral, QD): 800 mg | maximum tolerated dose (MTD) (per protocol, 100 to 1,200 mg QOD or QD): not reached
